# Entries after “also recorded” stand apart in the source; their conditions may differ. Read-outs that look alike come from different tables or passages of the source.
# How the values were obtained:
# [1] = tested on: mice with chronic constriction injury (CCI) to the sciatic nerve / naive mice; experiment: Mechanical allodynia (von Frey filaments, paw withdrawal threshold) after intrathecal drug treatment; type: in vivo, mouse; conditions: for reversal of mechanical allodynia ipsilateral to CCI: wild type mice, intrathecal in 10 μl, (R)-CPP 100 ρmol, peptide 1 n mole, K-93/KN-92 120 pmol
# Method: (§1) Animals were initially anaesthetised with sodium pentobarbital (Sagatal; 0.01 ml/kg (1:4 in saline, i.p.; Rhône Mérieux, UK) and this was then supplemented with halothane O2 (Zeneca, UK). Under aseptic conditions, using a variation of the method of Bennett and Xie for rat [G. J. Bennett and Y. K. Xie, Pain 33, 87 (1988)], the sciatic nerve was exposed at the mid-thigh level proximal to the sciatic trifurcation. Three chromic catgut ligatures (5.0; Ethicon, Edinburgh) separated by 1 mm were tied loosely to constrict the […] as viewed under 40× magnification. Vascular supply was not compromised. The overlying muscle and skin were sutured and the animals were placed in a recovery cage.
# (§2) Animals were tested for 6 days prior to surgery in order to establish stable baseline levels for each test and then every one or two days post-operatively (PO). The responses were compared to the average of the pre-surgery values and the contralateral control. The animals were examined daily to ensure that no autotomy was present.
# Mechanical allodynia was measured as the withdrawal threshold to calibrated Semmes-Weinstein von Frey filaments (Stoelting, Wood Dale, Ill.) with a bending force of 0.22-84.96 g. The mice were placed in a small rectangular cage. The filaments were applied to the mid-plantar surface of the hindpaw from beneath until the filament started to bend. This stimulus was repeated 8-10 times at 1-2 sec intervals for both the injured and uninjured hindpaws. The mean threshold required to elicit a withdrawal response was recorded. The filaments were applied in ascending order, and a response was characterised as a brief paw flick. The withdrawal threshold was defined from the lower of two consecutive von Frey filaments that elicited a response. Data were expressed as the threshold indentation pressure (i.e. the bending force/the cross-sectional area at the tip of the filament). Mean basal values for pre-operative paw withdrawal threshold were typically around 600 mN.mm^−2.
# (§3) Baseline measurements were recorded for thermal hyperalgesia (Hargreaves' test) and mechanical allodynia (von Frey filament test) in mice which had undergone the chronic constriction injury and were at the peak of neuropathy. Mice were anaesthetised with halothane and O2. Drugs were injected intrathecally, in 10 μl saline, at the L4 level of the spinal cord using a 25 μl microsyringe [J. L. Hylden and G. L. Wilcox, Eur. J. Pharmacol., 67, 313 (1980)]. The experimenter was blind to the content of the injections so as to eliminate bias, and dye injections (Pontamine Sky Blue) were performed to determine the site of injection. 15 minutes following injection, mice were re-tested using the same procedures and measurements were taken to determine the effects of drug on hyperalgesia and allodynia. Animals were tested every 5 minutes until readings returned to baseline levels.
# [2] = tested on: mice with chronic constriction injury (CCI) to the sciatic nerve / naive mice; experiment: Thermal hyperalgesia (Hargreaves, paw withdrawal latency) after intrathecal drug treatment; type: in vivo, mouse; conditions: for reversal of thermal hyperalgesia ipsilateral to CCI: wild type mice, intrathecal in 10 μl, (R)-CPP 100 ρmol, peptide 1 n mole, K-93/KN-92 120 pmol
# Method: as §1, §2
# Thermal hyperalgesia was monitored using Hargreaves' Thermal Stimulator (Linton Instruments, USA). The stimulus was applied to the mid-plantar surface of the hind paw. The withdrawal response was characterised as a brief paw flick. The latency of withdrawal was recorded for the ipsilateral (injured) and the contralateral hindpaws. The means of between 5 and 10 readings were recorded at 3-5 min intervals to ensure no hypersensitivity to the test was established. Mean basal values for pre-operative paw withdrawal latency were typically around 5 sec.
# as §3
# CaM kinase II = experiment: Ex vivo CaM kinase II activity assay after topical application to dorsal spinal cord; type: in vivo, mouse; conditions: for activation of constitutive CaM kinase II activity, wild type versus PSD-95 mutant: naive mice, topical 15 min, NMDA 500 μM with glycine 100 μM, ionomycin 10 μM
# Method: Following lumbar L3-6 laminectomy under anaesthesia, mice, which in some cases had previously received chronic constriction injury, were treated by topical application of agents to the dorsal surface of the spinal cord. […] Constitutive (autophosphorylated) and Ca^2+/CM-elicited activity of CaM II kinase [P. I. Hanson et al., Neuron 3, 59 (1989); P. M. Jones and S. J. Persaud, Am. J. Physiol. 274, E708 (1998)] were measured by the following procedure. Samples were rapidly homogenised on ice in 20 mM Na HEPES pH 7.5 with 5% glycerol, 1 mM EGTA, 1 mM dithiothreitol, 1 mM AEBSF, 2 μg.ml^−1 aprotinin, 10 μg.ml^−1 leupeptin, 2 μg.ml^−1 pepstatin, 50 μg.ml^−1 soybean trypsin inhibitor, 25 mM Na β-glycerophosphate, 1 mM Na orthovanadate, 1 mM Na F, 1 μM calyculin A, 1 μM cypermethrin. Following a 30 min incubation on ice with 0.25% CHAPS and clarification, samples were incubated at 4° C. for 2 hours with 3 μg.ml^−1 mouse anti-α-CaM kinase II IgG (clone CBα-2; Zymed) and then with excess Protein G-Sepharose for 1 hour. Aliquots of washed immunoprecipitate were incubated for 20 min at 30° C. (linear range of assay) with 50 μM autocamtide-2, 50 μM ATP (with [^33P] γ-ATP to 0.25 μCi/tube), 10 mM MgCl2 and 8 μg.ml^−1 purified bovine calmodulin (Sigma), in the presence of 0.5 μM PKC-α19-31 and 0.5 μM PKI6-22 amide (to suppress any PKC and PKA-mediated activity respectively) before termination with cold TCA (to 10%), centrifugation and spotting of the supernatant onto P81 phospho-cellulose paper.
# Samples were washed extensively in 75 mM H3PO4 and dried before scintillation counting. Constitutive and maximal Ca^2+-evoked activity were measured in the absence and presence of 2 mM CaCl2 respectively. Zero time and substrate-free blanks were less than 2% of maximal activity. Parallel immunoblotting experiments were attempted with phospho-specific antisera for Thr^286-CaM kinase II (the key autophosphorylation site), but gave insufficient signal:noise ratios for further use.
# NMDA receptors = conditions: rats, cited from earlier work
# [3] = target: multi-protein complex comprising NMDA receptor (NR1, NR2B, PSD-95) (Mus musculus, UniProt P35438+Q01097); experiment: Ligand affinity chromatography of mouse brain DOC extracts (SDS-PAGE, Western blotting); type: binding
# [4] = tested on: hippocampal CA1 region slices (MEK inhibitor)
# Text: Low resistance glass microelectrodes filled with ACSF were placed into stratum radiatum of the hippocampal CA1 region to record field excitatory postsynaptic potentials (fEPSPs) evoked by presynaptic stimulation pulses delivered once every 50 seconds to the Schaffer collateral/commissural fibers via a bipolar nichrome wire stimulating electrode. At the beginning of each experiment the intensity of presynaptic fiber stimulation was adjusted to evoke fEPSPs that were approximately half of the maximal fEPSP amplitude that could be evoked by strong intensity stimulation. High-frequency stimulation-induced LTP was elicited using two trains of 100 Hz stimulation (1 sec. in duration) delivered with an inter-train interval of 10 seconds. To elicit saturating levels of LTP we delivered 6, one-second-long trains of 100 Hz stimulation with an inter-train interval of 5 minutes. For statistical comparisons (unpaired t-tests, two-tailed, N=number of animals) we compared the average amount of potentiation present 55 to 60 minutes after the first high-frequency stimulation train or 40 to 45 minutes after low-frequency trains of stimulation. […] Similar results were obtained with both internal solutions and the results were combined. […] All experiments and initial data analysis were performed blind except for experiments done on 3 H-Ras^−/− mutant mice. […] All values are reported as mean±SEM.
# [5] = tested on: mouse brain proteins / multi-protein complex (PSD-95, NMDA receptor); experiment: Peptide affinity chromatography of mouse brain DOC extracts (SDS-PAGE); type: binding; conditions: 0.5 ml mouse brain DOC extract, Coomassie stained SDS-PAGE
# Method: Peptides were solubilised and coupled to affigel-10 in methanol at 5 mg/ml resin for 3 days at 4° C. with constant agitation and residual active side chains were blocked with 0.5 M Tris pH8.8 for 1 day at 4° C. followed by transfer of the resin to PBS.
# Initial small-scale experiments were done using 0.5 ml brain DOC extract and 25 μl affigel-10 immobilised peptides. The resins were washed four times with 0.5 ml cold DOC buffer after an incubation period of four hours at 4° C. with constant agitation followed by SDS-PAGE analysis. Large scale samples were prepared by adding 0.5 ml NR2B 1477-1482 peptide derivatised affigel-10 with 50 ml DOC extract followed by an incubation overnight at 4° C. with constant agitation. The resin was then transferred into a chromatography column and washed to baseline with approximately 100 ml cold DOC buffer. Bound proteins were released from the resin by boiling for 30 minutes in 4% SDS-containing buffer and 20 μl aliquots were subsequently used for SDS-PAGE analysis and Western blotting (see Example 2).
# [6] = CCI wild type mice, intrathecal
# [7] = ligand coupled to PharmaLink resin
# [8] = naive PSD-95 mutant mice, intrathecal NMDA
# [9] = naive wild type mice, intrathecal NMDA 0.25 nmol in 10μl
compound,measurement,setting,value
O=C(O)[C@H]1CN(CCCP(=O)(O)O)CCN1 [(R)-CPP],effect on contralateral responses (mechanical),[1]; [6],In no case was there any significant effect
same,effect on paw withdrawal threshold in PSD-95 mutants,"[1]; PSD-95 mutant mice with CCI, intrathecal",unaffected
same,effect in naive or sham-operated mice,[1]; naive or sham-operated wild type or PSD-95 mutant mice (data not shown),had no effect
same,reversal of mechanical allodynia ipsilateral to CCI,[1],completely reversed
same,effect on contralateral responses (thermal),[2]; [6],no effect
same,effect on paw withdrawal latency in PSD-95 mutants,"[2]; PSD-95 mutant mice with CCI, intrathecal 100 ρmol in 10 μl",had no effect; also recorded: unaffected
same,reversal of thermal hyperalgesia ipsilateral to CCI,[2],completely reversed
same,effect on elevated proportion of constitutive CaM kinase II activity ipsilateral to CCI,"CaM kinase II; wild type mice with CCI, topical application",entirely prevented
NC(CCCP(=O)(O)O)C(=O)O (stereo not drawn) [AP5],effect on new learning,NMDA receptors; both types of task,severely impaired
same,effect on retention of a previously learned olfactory discrimination or watermaze task,NMDA receptors,no effect
NC(N)=NCCCCN=C(N)N [Arcaine],proteins / multi-protein complex retained on immobilised ligand,[3]; ligand coupled to affigel-10,"substantial amount of protein did interact with immobilised Arcaine, including NR1, NR2B and PSD-95"
NC(CCCP(=O)(O)O)C(=O)O [D-AP5],proteins / multi-protein complex retained on immobilised ligand,[3]; [7],bound to an array of protein species
same,proteins / multi-protein complex retained on immobilised ligand,[3]; ligand coupled to affigel-10,ineffective in the isolation of any protein
COc1ccc2c(c1)[C@]13CCCC[C@@H]1[C@H](C2)N(C)CC3 [Dextromethorphan],proteins / multi-protein complex retained on immobilised ligand,[3],"only marginal amounts of both NR1 and NR2B were present, but surprisingly a comparatively large amount of PSD-95"
"NC1CCN(O)C1=O (stereo not drawn) [HA-966, 3-amino-1-hydroxy-2-pyrrolidone]",proteins / multi-protein complex retained on immobilised ligand,[3]; [7],found positive for NMDA receptor channel components and the attached PSD-95
same,proteins / multi-protein complex retained on immobilised ligand,[3]; ligand coupled to affigel-10,found positive for NMDA receptor channel components and the attached PSD-95
CC(C(O)c1ccc(O)cc1)N1CCC(Cc2ccccc2)CC1 (stereo not drawn) [Ifenprodil],proteins / multi-protein complex retained on immobilised ligand,[3],"capable of binding the multi-protein complex and many other molecules, though to a slightly lower degree than the Arcaine resin"
COc1ccc(S(=O)(=O)Nc2ccccc2CN(C)C/C=C/c2ccc(Cl)cc2)cc1 [KN92],reversal of thermal hyperalgesia ipsilateral to CCI,[2],to a smaller extent
COc1ccc(S(=O)(=O)N(CCO)c2ccccc2CN(C)C/C=C/c2ccc(Cl)cc2)cc1 [KN93],reversal of mechanical allodynia ipsilateral to CCI,[1],reversal
same,reversal of thermal hyperalgesia ipsilateral to CCI,[2],reversal
NC(=O)C[C@H](N)C(=O)O [L-Asparagine],proteins / multi-protein complex retained on immobilised ligand,[3]; ligand coupled to affigel-10,bound to an array of protein species
"CN[C@H](CC(=O)O)C(=O)O [NMDA, N-methyl-D-aspartate]",proteins / multi-protein complex retained on immobilised ligand,[3],only marginal quantities of the multi-protein complex were retained
same,effect on mechanical behavioural responses in PSD-95 mutants,[1]; [8],unaffected
same,induction of mechanical allodynia-like behavioural change,[1]; [9],bilaterally mimicked
same,effect on thermal behavioural responses in PSD-95 mutants,[2]; [8],unaffected
same,induction of thermal hyperalgesia-like behavioural change,[2]; [9],bilaterally mimicked
same,"activation of constitutive CaM kinase II activity, wild type versus PSD-95 mutant",CaM kinase II,equivalent
N#CC(=C(/N)Sc1ccccc1N)/C(C#N)=C(\N)Sc1ccccc1N [U0126],fEPSPs after 5 Hz stimulation,"[4]; slices from PSD-95 mutant mice continuously exposed to U0126, N=14 slices",270±12 % of baseline
same,effect on induction of LTP by a brief train of 5 Hz stimulation,"[4]; wild type slices, 20 μM",strongly suppressed the induction of LTP
same,fEPSPs after 5 Hz stimulation,"[4]; wild type slices, continuously bathed in U0126 (20 *M) at least 60 min before 5 Hz stimulation, N=11 slices",137±9 % of baseline
C[C@H](CCC(=O)O)C[C@H](C)C[C@H](C)C(=O)/C=C(\O)[C@H](C)C[C@H](C)C/C=C/[C@@H](C)[C@@H](O)[C@@H](C)[C@@H](O)C[C@@H]1CC[C@@](C)([C@H]2CC[C@@](C)([C@@H](C)O)O2)O1 [ionomycin],"activation of constitutive CaM kinase II activity, wild type versus PSD-95 mutant",CaM kinase II,equivalent
"KLSSIESDV [NR2B (1474-1482), NR2B C-terminal peptide]",proteins bound by peptide covalently linked to affigel-10,[5],did not show any binding pattern similar to the slightly shorter one
"RRAIEREEGQLQLCSRHRES [NR1 C-terminal peptide, last 20 amino acids of NR1, 919-938]",proteins bound by peptide covalently linked to affigel-10,[5],showed no evident binding pattern
SIESDV [NR2B (1477-1482)],proteins bound by peptide covalently linked to affigel-10,[5],"revealed several bands at 75 and 100 kDa; also recorded: capable of not only purifying PSD-95 and other members of this family, but also the NMDA receptor itself"
myristoyl-autocamtide 2-related inhibitory peptide,reversal of mechanical allodynia ipsilateral to CCI,[1],reversal
same,reversal of thermal hyperalgesia ipsilateral to CCI,[2],reversal

# Source: patent US20030176651A1, “Multiprotein-complex comprising a nmda receptor and uses thereof” (priority 2000, published 2003)
